Entries after “also recorded” stand apart in the source; their conditions may differ. Where a SMILES comes first, the peptide text is derived from it. Bridges are numbered along the chain shown (N, C = ends).
How the values were obtained:
[1] = test system: honey bees (Apis mellifera); experiment: Appetitive olfactory learning (conditioning of proboscis extension reflex); format: in vivo; settings: for change of conditioned responses in last conditioning trial vs vehicle (GLM coefficient ± standard error): ~200 nl into head haemolymph 1 h before conditioning; for effect on olfactory learning performance, in words: injected into the head before conditioning, range of concentrations, vs vehicle-injected controls, Fig 9
Description: For behavioral experiments, bees departing from the hive (mostly foragers) were chosen as they usually show good motivation and learning ability. Each cold-anesthetized animal was introduced into a metal holder and fixed to it in order to restrain all movements of the appendages apart from those of the antennae and proboscis. Each bee was then fed with 5 μl of a sucrose solution (50% w/w in water), and its median ocellus was removed to allow injection of allatostatin into the head capsule. All bees were then placed in a dark, warm (25°C) and humidified compartment for 3 hours, before the experiments began.
(§1) The vehicle for allatostatins was a saline solution made of PBS containing the protease blocker, 1 mM PMSF (prepared from a 30mM stock solution in 100% ethanol, final concentration of ethanol 3.3%).
(§2) The allatostatins were injected into the head haemolymph after penetrating the median ocellus, either 1 hour before olfactory conditioning or sucrose responsiveness assessment, or immediately after olfactory conditioning. All injections were performed under a binocular microscope. A micromanipulator-controlled Hamilton syringe (Nanofil, equipped with a NF33BV2 needle, WPI) was used to inject approximately 200 nl of peptide solution. To make sure that the solution was properly injected, it was pushed out of the syringe so that a drop was visible and then the drop was put in contact with the haemolymph where it was quickly absorbed thanks to the respiratory movements of the bee. Any bee with excessive bleeding was discarded.
Associative conditioning of the proboscis extension reflex was used to monitor effects of allatostatin treatment on appetitive olfactory learning performance. Olfactory stimuli were prepared shortly before conditioning by inserting a small piece of filter paper soaked with 4μl of pure odorant (from Sigma-Aldrich, Lyon, France) in one of the 8 channels of a custom-made, computer-driven olfactometer (P. Arrufat, Research Center on Animal Cognition, Toulouse, France). Immediately before conditioning, the integrity of the proboscis extension reflex was checked by touching both antennae with a 50% (w/w in water) sucrose solution. Olfactory conditioning of this reflexive response was carried out following a standard protocol consisting of three paired presentations of the odor (conditioned stimulus, CS) with 50% sucrose (the unconditioned stimulus, US) separated by a 10-min interval. Each trial included a familiarization phase in which the bee was placed in the conditioning set up for 13 s before forward pairing of the CS-US. The CS (1-nonanol) was delivered to the bee through an airflow for 4 s, and the US (sucrose solution) for 3 s, with a 1 s CS-US overlap. The US was presented by gently touching the antennae to elicit the PER; as soon as the bee extended its proboscis it was allowed to lick the toothpick. This sequence was controlled by the computer-driven olfactometer.
(§3) Functional data (receptor-mediated calcium, cAMP signals and binding) were plotted and regression curves were fitted using the GraphPad Prism software (San Diego, CA). The learning data were analyzed with generalized linear effects modeling (GLM) for binomial data using the R package lme4 [67]. Response levels recorded in the last conditioning trial were used to assess the effect of treatment on learning. For 1-hour memory and generalization tests, effects of allatostatin treatment were compared for each odor tested. Generalized linear mixed effects modeling (GLMM) was also used to analyze responsiveness to sucrose, with concentration and treatment as fixed factors and the bee identity and solution presented (either sucrose or water) as random factors. […] All statistics were generated in R [68].

[2] = test system: honey bees (Apis mellifera); experiment: Olfactory generalization test; format: in vivo; settings: 1μM, injected immediately after conditioning, test 1h later, N = 66, 75, 72; for response to nonanal vs control (GLM coefficient ± standard error): ASTA p = 0.38, ASTC p = 0.41, ASTCC p = 0.30; for response to 1-hexanol vs control (GLM coefficient ± standard error): ASTA p = 0.91, ASTC p = 0.96, ASTCC p = 0.56; for response to 1-nonanol (CS) vs control (GLM coefficient ± standard error): ASTA p = 0.96, ASTC p = 0.37, ASTCC p = 0.10
Description: as §1, §2
Bees that learned to respond to the conditioned stimulus (CS) at the end of conditioning were submitted to a generalization test 1h later. In addition to 1-nonanol (the CS), two novel odorants (nonanal and 1-hexanol) were presented: these were selected according to their respective high and low levels of perceptual similarity with 1-nonanol. All odorants were presented without reinforcement with sucrose. The order of odorant presentations varied across individuals, and the integrity of the reflexive response to sucrose was checked at the end of the test.
as §3

[3] = 10^-6M, ASTA p<0.01, ASTC p<0.05, ASTCC p<0.001

Compound: CC(C)[C@@H]1NC(=O)[C@H](C)NC(=O)[C@H](CC(N)=O)NC(=O)[C@H](Cc2ccccc2)NC(=O)[C@H](Cc2ccc(O)cc2)NC(=O)[C@@H](NC(=O)[C@H](CCCNC(=N)N)NC(=O)[C@H](Cc2c[nH]c3ccccc23)NC(=O)[C@H](Cc2ccc(O)cc2)NC(=O)[C@@H](NC(=O)[C@H](CCCNC(=N)N)NC(=O)CNC(=O)[C@H](CCCCN)NC(=O)[C@H](C)NC(=O)[C@H](CCC(N)=O)NC(=O)CN)C(C)C)CSSC[C@@H](C(=O)N[C@@H](Cc2ccccc2)C(=O)O)NC(=O)[C@H]([C@@H](C)O)NC1=O [Apime-ASTCC] (H-GQAKGRVYWRCYFNAVTCF-OH; disulfide 11-18; N-terminus assumed)
- change of conditioned responses in last conditioning trial vs vehicle (GLM coefficient ± standard error) ([1]; 10^-3M, ASTCC p<0.05): -1.04±0.45
- change of conditioned responses in last conditioning trial vs vehicle (GLM coefficient ± standard error) ([1]; 10^-4M, ASTA p<0.01, ASTCC p<0.01): -1.35±0.44
- change of conditioned responses in last conditioning trial vs vehicle (GLM coefficient ± standard error) [1, 3]: -1.75±0.43
- change of conditioned responses in last conditioning trial vs vehicle (GLM coefficient ± standard error) ([1]; 10^-7M, ASTCC p<0.001): -1.59±0.44
- effect on olfactory learning performance, in words [1]: the effects of each peptide were dose-dependent
- effect on olfactory learning performance, in words ([1]; listed as ASTCC): apparent at much lower doses than effects of ASTC; also recorded: significant, dose-dependent (yet not linear) decrease in the percentage of bees that learned
- response to nonanal vs control (GLM coefficient ± standard error) [2]: 0.37±0.36
- response to 1-hexanol vs control (GLM coefficient ± standard error) [2]: 0.20±0.34
- response to 1-nonanol (CS) vs control (GLM coefficient ± standard error) [2]: 0.71±0.44

Compound: CC(C)[C@@H]1NC(=O)[C@H](C)NC(=O)[C@H](CC(N)=O)NC(=O)[C@H](Cc2ccccc2)NC(=O)[C@H](C)NC(=O)[C@@H](NC(=O)[C@H](CCC(N)=O)NC(=O)[C@H](CCCCN)NC(=O)[C@H](Cc2c[nH]c3ccccc23)NC(=O)[C@H](Cc2ccc(O)cc2)NC(=O)[C@@H](N)CO)CSSC[C@@H](C(=O)N[C@@H](Cc2ccccc2)C(N)=O)NC(=O)[C@H](CO)NC1=O [Apime-ASTC] (H-SYWKQCAFNAVSCF-NH2; disulfide 6-13; N-terminus assumed)
- change of conditioned responses in last conditioning trial vs vehicle (GLM coefficient ± standard error) ([1]; 10^-5M, ASTA p<0.05, ASTC p<0.05): -0.84±0.42
- change of conditioned responses in last conditioning trial vs vehicle (GLM coefficient ± standard error) [1, 3]: -0.91±0.41
- effect on olfactory learning performance, in words [1]: the effects of each peptide were dose-dependent
- effect on olfactory learning performance, in words ([1]; listed as ASTC): significant, dose-dependent (yet not linear) decrease in the percentage of bees that learned
- response to nonanal vs control (GLM coefficient ± standard error) [2]: 0.29±0.36
- response to 1-hexanol vs control (GLM coefficient ± standard error) [2]: 0.01±0.34
- response to 1-nonanol (CS) vs control (GLM coefficient ± standard error) [2]: 0.35±0.40

Source: paper PMC4704819, “Honey Bee Allatostatins Target Galanin/Somatostatin-Like Receptors and Modulate Learning: A Conserved Function?” (PLoS ONE, 2016)
